The values that follow come from patent US6194416A, “Heterocyclic compounds and their use” (Eli Lilly and Company, priority 1997, dated 2001).

The structures appear in SMILES notation.

The target of test [1] is muscarinic acetylcholine receptors. The test is described as follows: Inhibition of specific binding of 3H-Oxotremorine-M (3H-Oxo) to rat cortex membranes. Set-up: species or system male Wistar rats. Particulars: 1.0 nM 3H-Oxotremorine, 30 min, 25° C., pH 7.4. The text has this:
The pharmacological properties of the compounds of the invention can be illustrated by determining their capability to inhibit the specific binding of ^3 H-Oxotremorine-M (^3 H-Oxo). Birdsdall N. J. M., Hulme E. C., and Burgen A. S. V. (1980). "The Character of Muscarinic Receptors in Different Regions of the Rat Brain". Proc. Roy. Soc. London (Series B) 207,1.
^3 H-Oxo labels muscarinic receptor in the CNS (with a preference for agonist domains of the receptors). Three different sites are labeled by ^3 H-Oxo. […] Using the present experimental conditions only the high and medium affinity sites are determined.
The inhibitory effects of compounds on ^3 H-oxo binding reflects the affinity for muscarinic acetylcholine receptors.
All preparations are performed at 0-4° C. unless otherwise indicated. Fresh cortex (0.1-1 g) from male Wistar rats (150-250 g) is homogenized for 5-10 s in 10 mL […] Hepes pH: 7.4, with an Ultra-Turrax homogenizer. The homogenizer is rinsed with 10 mL of buffer and the combined suspension centrifuged for 15 min. at 40,000×g. The pellet is washed three times with buffer. In each step the pellet is homogenized as before in 2×10 mL of buffer and centrifuged for 10 min. at 40,000×g.
The final pellet is homogenized in 20 mM Hepes pH: 7.4 (100 mL per g of original tissue) and used for binding assay. Aliquots of 0.5 mL is added 25 μL of test solution and 25 μL of ^3 H-Oxotremorine (1.0 nM, final concentration) mixed and incubated for 30 min. at 25° C. Non-specific binding is determined in triplicate using arecoline (1 μg/mL, final concentration) as the test substance. After incubation samples are added 5 mL of ice-cold buffer and poured directly onto Whatman GF/C glass fiber filters under suction and immediately washed 2 times with 5 mL of ice-cold buffer. The amount of radioactivity on the filters are determined by conventional liquid scintillation counting. Specific binding is total binding minus non specific binding.
Test substances are dissolved in 10 mL water (if necessary heated on a steam-bath for less than 5 min.) at a concentration of 2.2 mg/mL. 25-75% inhibition of specific binding must be obtained before calculation of IC50. The test value will be given as IC50 (the concentration (nM) of the test substance which inhibits the specific binding of ^3 H-oxo by 50%). IC50 =(applied test substance concentration) x([…])nM where Co is specific binding in control assays and Cx is the specific binding in the test assay. (The calculations assume normal mass-action kinetics).

Test [2] addresses T1, muscarinic receptors (M1-site, pirenzepine sensitive site) (Rattus norvegicus, UniProt P08482).
T1 construct: from tissue; host or cells: cerebral cortex membranes of male Wistar rats
T1 sequence (P08482 1-460): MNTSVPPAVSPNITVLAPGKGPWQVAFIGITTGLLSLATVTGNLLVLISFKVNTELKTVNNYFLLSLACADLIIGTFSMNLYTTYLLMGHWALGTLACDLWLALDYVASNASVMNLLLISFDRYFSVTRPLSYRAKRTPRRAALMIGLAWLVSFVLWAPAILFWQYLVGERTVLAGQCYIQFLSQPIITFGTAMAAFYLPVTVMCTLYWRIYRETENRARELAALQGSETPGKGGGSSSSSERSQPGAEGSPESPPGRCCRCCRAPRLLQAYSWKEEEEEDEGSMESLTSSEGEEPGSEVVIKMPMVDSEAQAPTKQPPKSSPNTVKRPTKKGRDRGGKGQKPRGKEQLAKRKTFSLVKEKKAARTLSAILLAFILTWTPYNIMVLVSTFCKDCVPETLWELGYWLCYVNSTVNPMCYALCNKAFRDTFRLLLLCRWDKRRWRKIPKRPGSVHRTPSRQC
The test is described as follows: Inhibition of 3HPRZ (pirenzepine, [N-methyl-3H]) binding to rat cerebral cortex membranes. Details: species or system male Wistar rats. Particulars: rat cerebral cortex, 1.0 nM 3HPRZ, 60 min, 20° C., pH 7.4; read-out: 3HPRZ IC50. As for the experimental part:
Furthermore the pharmacological properties of the compounds of the invention can also be illustrated by determining their capability to inhibit ^3 HPRZ (pirenzepine, [N-methyl-^3 H]) binding to rat cerebral cortex membranes.
Pirenzepine binds selectively to subtype of muscarinic receptors. Historically the type is named the M1 -site, whereas pirenzepine sensitive site would be more appropriate.
All preparations are performed at 0-4° C. unless otherwise indicated. Fresh cortex ([…]) from male Wistar rats (150-200 g) is homogenized for 5-10 s in 10 mL 20 mM Hepes pH: 7.4, with an Ultra-Turrax homogenizer. The homogenizer is rinsed with 2×10 mL of buffer and the combined suspension centrifuged for 15 min. at 40,000×g. The pellet is washed three times with buffer. In each step the pellet is homogenized as before in 3×10 mL of buffer and centrifuged for 10 min. at 40,000×g.
The final pellet is homogenized in 20 MM Hepes pH: 7.4 (100 mL per g of original tissue) and used for binding assay. Aliquots of 0.5 mL is added 20 μL of test solution and 25 μL of ^3 HPRZ (1.0 nM, final conc.), mixed and incubated for 60 min. at 20° C. Non-specific binding is determined in triplicate using atropine (1.0 μg/mL, final conc.) as the test substance. After incubation samples are added 5 mL of ice-cold buffer and poured directly onto Whatman GF/C glass fiber filters under suction and immediately washed 2 times with 5 mL of ice-cold buffer.
The amount of radioactivity on the filters are determined by conventional liquid scintillation counting. Specific binding is total binding minus non-specific binding.
Test substances are dissolved in 10 mL water, at a concentration of 0.22 mg/mL. 25-75% inhibition of specific binding must be obtained before calculation of IC50.
The test value will be given as IC50 (the concentration (nM) of the test substance which inhibits the specific binding of ^3 HPRZ by 50%). IC50 =(applied test substance concentration) x(Cx /Co -Cx)nM where Co is specific binding in control assays and Cx is the specific binding in the test assay. (The calculations assume normal mass-action kinetics).

The target of test [3] is nicotinic receptors. Nature of the test: Nicotinic channel receptor binding: [3H]-cystine binding to crude synaptic membranes from whole rat brain. Particulars: 1.25 nM [3H-cystine], about 60 min, about 4° C. As for the experimental part:
Nicotinic Channel Receptor Binding Protocol:
The activity of the compounds claimed herein at the nicotinic receptor can be accomplished by the following assay.
Binding of […] to nicotinic receptors was accomplished using crude synaptic membrane preparations from whole rat brain (Pabreza et al. Molecular Pharmacol., 1990, 39:9). Washed membranes were stored at about -80° C. prior to use. Frozen aliquots were slowly thawed and resuspended in 20 volumes of buffer (containing: […] NaCl, 5 mM KCl, 2 mM MgCl2, 2 mM Tris-Cl, ph 7.4 @4° C.). After centrifuging at 20,000×g for 15 minutes, the pellets were resuspended in about 30 volumes of buffer. Homogenate (containing about 125-150 ug protein) was added to tubes containing concentrations of test compound and [^3 H-cystine] (1.25 nM) in a final volume of 500 uL. Samples were incubated for about 60 minutes at about 4° C., then rapidly filtered through GF/B filters presoaked in 0.5% polyethylimine using 3×4 mL of ice cold buffer. The filters were counted.

Test [4] deals with M1-sites of muscarinic receptors. The settings on record: general statement; cited from earlier work.
Test [5] deals with M2-sites of muscarinic receptors. The settings on record: general statement; cited from earlier work.

`c1cnc(O[C@H]2CN3CCC[C@@H]2C3)cn1` (relative stereo) [Compound 21, 2-[endo-(+,-)-6-(1-azabicyclo[3.2.1]octyloxy)]-pyrazine]: the IC50 in test [1] turned out to be 26 nM; in test [2], 123 nM. In test [3], this compound showed a Ki of 130 nM.
Compound `CCCCSc1nccnc1OC1CN2CCC1CC2` (racemic) [Compound 6, (+/-)-3-Butylthio-2-(1-azabicyclo[2.2.2]octyl-3-oxy)pyrazine] gave a Ki in test [3] of 5490 nM.
Same read-out and setting: in the case of `CCCCSc1nccnc1OCC[N+](C)(C)C` [Compound 18, 3-(1-Butylthio)-2-(2-(trimethylamino)ethoxy)pyrazine iodide] it was 580 nM.
For `Clc1cncc(O[C@@H]2CN3CCC[C@H]2C3)n1` (relative stereo) [Compound 22, 6-Chloro-2-[endo-(+,-)-6-(1-azabicyclo[3.2.1]octyloxy)]-pyrazine], the IC50 in test [1] is 140 nM; in test [2], 52 nM. In test [3], this compound had a Ki of 210 nM.
As for `CN1CCN(CC(=O)N2c3ccccc3C(=O)Nc3cccnc32)CC1` [pirenzepine], the muscarinic subtype selectivity result in test [4] is “selective for M1 -sites”. In addition, in test [5], the “interaction with M2-sites” value was “also interact with M2 -sites”.
`Clc1nccnc1O[C@H]1CN2CCC[C@@H]1C2` (relative stereo) [Compound 19, 3-Chloro-2-[endo-(+,-)-6-(1-azabicyclo[3.2.1]octyloxy)]-pyrazine]: the affinity in test [3], expressed as Ki, was 2780 nM.
